Columns and labels:
[1] = Metabolic stability, human liver microsomes; assay type: in vitro ADME
RT112 = experiment: Inhibition of proliferation (CellTiterblue, 72 hr), RT112; assay type: cell-based; details: Homo sapiens, RT-112, 72 h
Procedure: (§1) A number of studies were performed to analyze the consequences of tyrosine kinase inhibition in cell lines. To do this, 1000 cells are seeded in 27 μl/well in 384-well microplates, which are then placed in a humidified CO2 incubator at 37° C. overnight. The next day, 3 μl/well of 10× concentrated drug is added and the plates are returned to the incubator for 72 hr. After 72 hr incubation, plates are removed and 6 μl/well CellTiterblue (Promega) viability reagent is added. Plates are returned to the incubator for 3 hrs, after which fluorescence measurements are read on the Victor X3 plate reader (Perkin Elmer). Data are analyzed using Excel (Microsoft), and GI50 values are determined using Prism (Graphpad).

Ret(h) = Ret(h) (Homo sapiens, UniProt P07949); experiment: Kinase assay, Ret(h); assay type: biochemical
Sequence of Ret(h) (P07949 29-1114): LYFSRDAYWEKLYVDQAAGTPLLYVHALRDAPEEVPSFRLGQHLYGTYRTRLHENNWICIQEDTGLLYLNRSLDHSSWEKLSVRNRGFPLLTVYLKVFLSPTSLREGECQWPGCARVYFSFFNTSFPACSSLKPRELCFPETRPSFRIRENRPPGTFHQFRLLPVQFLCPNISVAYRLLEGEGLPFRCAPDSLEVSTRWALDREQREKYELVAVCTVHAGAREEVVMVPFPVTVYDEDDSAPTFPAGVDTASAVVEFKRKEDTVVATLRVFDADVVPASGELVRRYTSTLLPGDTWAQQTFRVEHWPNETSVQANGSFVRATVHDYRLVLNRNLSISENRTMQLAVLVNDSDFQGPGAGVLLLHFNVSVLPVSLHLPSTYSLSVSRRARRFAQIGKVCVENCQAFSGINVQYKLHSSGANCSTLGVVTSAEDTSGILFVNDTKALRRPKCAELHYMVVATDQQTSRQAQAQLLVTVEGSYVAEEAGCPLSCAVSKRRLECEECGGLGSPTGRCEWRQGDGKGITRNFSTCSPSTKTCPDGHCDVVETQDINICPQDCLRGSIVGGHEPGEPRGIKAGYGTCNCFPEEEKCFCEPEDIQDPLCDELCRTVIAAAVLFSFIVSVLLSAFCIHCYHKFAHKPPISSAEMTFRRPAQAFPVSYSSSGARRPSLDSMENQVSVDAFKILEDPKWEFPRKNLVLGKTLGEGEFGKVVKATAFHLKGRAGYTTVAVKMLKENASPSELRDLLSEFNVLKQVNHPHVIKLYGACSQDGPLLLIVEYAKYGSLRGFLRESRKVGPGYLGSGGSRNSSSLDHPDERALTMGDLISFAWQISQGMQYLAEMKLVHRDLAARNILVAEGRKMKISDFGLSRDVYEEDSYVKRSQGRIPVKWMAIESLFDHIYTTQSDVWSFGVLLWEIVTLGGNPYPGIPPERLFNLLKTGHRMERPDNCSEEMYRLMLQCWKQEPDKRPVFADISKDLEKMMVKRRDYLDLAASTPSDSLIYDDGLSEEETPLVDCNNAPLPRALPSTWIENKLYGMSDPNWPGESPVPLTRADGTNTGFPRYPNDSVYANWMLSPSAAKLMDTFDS

FGFR1(h) = FGFR1(h) (Homo sapiens, UniProt P11362); experiment: Kinase assay, FGFR1(h); assay type: biochemical
Sequence of FGFR1(h) (P11362 22-822): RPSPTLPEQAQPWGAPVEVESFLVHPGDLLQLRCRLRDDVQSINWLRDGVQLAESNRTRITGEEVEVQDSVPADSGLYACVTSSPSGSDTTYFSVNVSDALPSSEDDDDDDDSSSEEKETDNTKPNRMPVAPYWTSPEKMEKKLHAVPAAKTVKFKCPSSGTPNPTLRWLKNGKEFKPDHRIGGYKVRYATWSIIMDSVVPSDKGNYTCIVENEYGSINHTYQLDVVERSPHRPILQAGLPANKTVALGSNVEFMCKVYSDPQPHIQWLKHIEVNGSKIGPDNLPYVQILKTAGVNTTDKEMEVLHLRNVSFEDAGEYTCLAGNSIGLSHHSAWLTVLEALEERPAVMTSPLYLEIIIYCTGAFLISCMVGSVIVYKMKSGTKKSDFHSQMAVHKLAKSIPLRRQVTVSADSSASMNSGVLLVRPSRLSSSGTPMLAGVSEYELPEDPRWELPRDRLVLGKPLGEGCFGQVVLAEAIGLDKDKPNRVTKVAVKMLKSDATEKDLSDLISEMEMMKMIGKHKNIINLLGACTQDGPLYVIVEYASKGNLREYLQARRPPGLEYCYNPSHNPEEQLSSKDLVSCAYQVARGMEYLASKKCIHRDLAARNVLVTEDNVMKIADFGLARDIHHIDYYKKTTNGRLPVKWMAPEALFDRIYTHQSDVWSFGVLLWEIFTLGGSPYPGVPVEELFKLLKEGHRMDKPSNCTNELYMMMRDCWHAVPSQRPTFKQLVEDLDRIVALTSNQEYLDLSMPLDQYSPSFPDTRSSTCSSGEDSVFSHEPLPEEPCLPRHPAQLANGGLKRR
Procedure: Kinase assay protocols well known to those of ordinary skill in the art were used. Specifically, the buffer composition was as follows: 20 mM MOPS, 1 mM EDTA, 0.01% Brij-35, 5% Glycerol, 0.1% β-mercaptoethanol, 1 mg/mL BSA. Test compounds were initially dissolved in DMSO at the desired concentration, then serially diluted to the kinase assay buffer. In a final reaction volume of 25 μL FGFR1(h) (5-10 mU) and KDR(h) (5-10 mU) are incubated with 8 mM MOPS pH 7.0, 0.2 mM EDTA, 200 μM LRRASLG (Kemptide), 10 mM magnesium acetate and [γ^33P-ATP]. The reaction was initiated by the addition of the MgATP mix. After incubation for 40 minutes at room temperature, the reaction was stopped by addition of 5 μL of a 3% phosphoric acid solution. Ten L of the reaction was then spotted onto a P30 filter mat and washed three times for 5 minutes in 50 mM phosphoric acid and once in methanol prior to drying and scintillation counting. Wells containing substrate but no kinase and wells containing a phosphopeptide control were used to set 0% and 100% phosphorylation value, respectively.
Of all of the steps in developing a drug, the hardest is finding promising compounds. (See, e.g., Malo et al., “Statistical practice in high-throughput screening data analysis,” Nature Biotechnology, 2006, 24, 167-75.) Kinase inhibitors often also have an anti-proliferative effect. […] The kinase inhibitory activity Compound 19 was tested using the kinase assay described in Example 3. […] These mutations in the tested kinases are thought to play an important role in transformation of some cancers.

TG1a Human AML Xenograft = experiment: Antitumor efficacy on TG1a human AML xenograft; assay type: in vivo, mouse
Procedure: In this Example the antitumor activity of compounds 14, 17, 19, 45, and 48 of the current invention are tested using an art-recognized xenograft model of AML. (“T/C” refers to the ratio of the tumor's size in treated animals versus the tumor size in control untreated animals. “BWC” refers to “body weight change”).

ALK(h) = ALK(h) (Homo sapiens, UniProt Q9UM73); experiment: Kinase assay, ALK(h); assay type: biochemical
[2] = Cellular toxicity, HepG2 cell line; assay type: cell-based; details: human, HepG2 cells
From the text: (§2) Table 9 discloses toxicity data for compound 19 from various toxicity tests well known to those of ordinary skill.

Kato III = experiment: Inhibition of proliferation (CellTiterblue, 72 hr), Kato III; assay type: cell-based; details: Homo sapiens, KATO III, 72 h
Procedure: as §1

ABL(h) = ABL(h) (Homo sapiens, UniProt P00519); experiment: Kinase assay, ABL(h); assay type: biochemical
Flt4(h) = Flt4(h) (Homo sapiens, UniProt P35916); experiment: Kinase assay, Flt4(h); assay type: biochemical
Mer(h) = Mer(h) (Homo sapiens, UniProt Q12866); experiment: Kinase assay, Mer(h); assay type: biochemical
Sequence of Mer(h) (Q12866 21-999): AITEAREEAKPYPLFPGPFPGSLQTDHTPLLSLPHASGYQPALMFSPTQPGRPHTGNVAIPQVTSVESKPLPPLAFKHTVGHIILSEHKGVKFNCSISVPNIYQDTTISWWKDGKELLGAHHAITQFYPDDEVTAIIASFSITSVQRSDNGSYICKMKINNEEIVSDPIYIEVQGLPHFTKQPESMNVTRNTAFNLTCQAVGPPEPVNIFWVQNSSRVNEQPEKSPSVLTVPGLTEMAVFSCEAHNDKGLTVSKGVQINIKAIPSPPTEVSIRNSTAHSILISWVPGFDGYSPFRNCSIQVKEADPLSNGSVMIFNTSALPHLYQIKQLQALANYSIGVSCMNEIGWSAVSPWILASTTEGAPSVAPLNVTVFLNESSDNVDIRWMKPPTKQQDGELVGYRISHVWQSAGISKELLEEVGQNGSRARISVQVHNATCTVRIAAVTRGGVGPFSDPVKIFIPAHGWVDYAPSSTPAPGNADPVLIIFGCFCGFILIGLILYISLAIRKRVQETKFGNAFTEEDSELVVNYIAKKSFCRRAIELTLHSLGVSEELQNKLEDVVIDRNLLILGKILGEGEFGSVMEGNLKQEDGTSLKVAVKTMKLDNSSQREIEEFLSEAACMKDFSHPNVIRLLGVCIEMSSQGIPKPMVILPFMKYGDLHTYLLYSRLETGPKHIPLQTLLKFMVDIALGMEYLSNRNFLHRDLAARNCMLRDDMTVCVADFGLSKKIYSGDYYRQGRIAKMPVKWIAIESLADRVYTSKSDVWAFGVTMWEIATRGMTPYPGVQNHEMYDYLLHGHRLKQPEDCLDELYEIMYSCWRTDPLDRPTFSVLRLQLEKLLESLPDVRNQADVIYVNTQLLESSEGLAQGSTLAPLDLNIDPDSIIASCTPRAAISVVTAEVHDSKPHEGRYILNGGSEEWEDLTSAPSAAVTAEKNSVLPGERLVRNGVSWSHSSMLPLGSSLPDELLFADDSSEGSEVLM

[3] = Metabolic stability, rat liver microsomes; assay type: in vitro ADME
[4] = In vivo acute toxicity, MTD; details: PO, rat
From the text: as §2

Axl(h) = Axl(h) (Homo sapiens, UniProt P30530); experiment: Kinase assay, Axl(h); assay type: biochemical
FGFR4 = target: T1, FGFR4 (Homo sapiens, UniProt P22455); experiment: BaF3 cells engineered for expression of FGFR4; assay type: cell-based; details: read-out: IC5o(nM) FGFR4
T1 construct: expressed in transfected cells; host or cells: BaF3
From the text: In FIG. 1 these kinases are from the fibroblast growth factor receptor class of kinases (FGFR1-FGFR4). Compound 19 kinase inhibitory activity FGFR1-FGFR4 are also depicted in Table 5.

Lck(h) = Lck(h) (Homo sapiens, UniProt P06239); experiment: Kinase assay, Lck(h); assay type: biochemical
hERG = hERG (Homo sapiens, UniProt Q12809); experiment: Cardiovascular toxicity, hERG
From the text: as §2

AJK2(h) = AJK2(h) (Homo sapiens, UniProt O60674); experiment: Kinase assay, AJK2(h); assay type: biochemical
Aurora-A (h) = Aurora-A (h) (Homo sapiens, UniProt O14965); experiment: Kinase assay, Aurora-A (h); assay type: biochemical
Sequence of Aurora-A (h) (O14965 whole entry): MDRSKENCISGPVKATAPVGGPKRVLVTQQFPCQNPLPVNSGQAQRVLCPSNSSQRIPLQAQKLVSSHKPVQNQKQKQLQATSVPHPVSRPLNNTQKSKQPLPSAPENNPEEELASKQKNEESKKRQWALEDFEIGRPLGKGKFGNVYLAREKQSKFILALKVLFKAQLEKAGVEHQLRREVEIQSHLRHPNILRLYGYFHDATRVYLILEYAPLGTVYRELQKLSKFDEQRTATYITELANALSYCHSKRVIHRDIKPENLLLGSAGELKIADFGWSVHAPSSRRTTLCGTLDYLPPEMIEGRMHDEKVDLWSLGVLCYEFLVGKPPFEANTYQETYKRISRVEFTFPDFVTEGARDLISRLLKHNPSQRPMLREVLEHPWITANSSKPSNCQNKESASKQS

Met(h) = Met(h) (Homo sapiens, UniProt P08581); experiment: Kinase assay, Met(h); assay type: biochemical
Sequence of Met(h) (P08581 25-1390): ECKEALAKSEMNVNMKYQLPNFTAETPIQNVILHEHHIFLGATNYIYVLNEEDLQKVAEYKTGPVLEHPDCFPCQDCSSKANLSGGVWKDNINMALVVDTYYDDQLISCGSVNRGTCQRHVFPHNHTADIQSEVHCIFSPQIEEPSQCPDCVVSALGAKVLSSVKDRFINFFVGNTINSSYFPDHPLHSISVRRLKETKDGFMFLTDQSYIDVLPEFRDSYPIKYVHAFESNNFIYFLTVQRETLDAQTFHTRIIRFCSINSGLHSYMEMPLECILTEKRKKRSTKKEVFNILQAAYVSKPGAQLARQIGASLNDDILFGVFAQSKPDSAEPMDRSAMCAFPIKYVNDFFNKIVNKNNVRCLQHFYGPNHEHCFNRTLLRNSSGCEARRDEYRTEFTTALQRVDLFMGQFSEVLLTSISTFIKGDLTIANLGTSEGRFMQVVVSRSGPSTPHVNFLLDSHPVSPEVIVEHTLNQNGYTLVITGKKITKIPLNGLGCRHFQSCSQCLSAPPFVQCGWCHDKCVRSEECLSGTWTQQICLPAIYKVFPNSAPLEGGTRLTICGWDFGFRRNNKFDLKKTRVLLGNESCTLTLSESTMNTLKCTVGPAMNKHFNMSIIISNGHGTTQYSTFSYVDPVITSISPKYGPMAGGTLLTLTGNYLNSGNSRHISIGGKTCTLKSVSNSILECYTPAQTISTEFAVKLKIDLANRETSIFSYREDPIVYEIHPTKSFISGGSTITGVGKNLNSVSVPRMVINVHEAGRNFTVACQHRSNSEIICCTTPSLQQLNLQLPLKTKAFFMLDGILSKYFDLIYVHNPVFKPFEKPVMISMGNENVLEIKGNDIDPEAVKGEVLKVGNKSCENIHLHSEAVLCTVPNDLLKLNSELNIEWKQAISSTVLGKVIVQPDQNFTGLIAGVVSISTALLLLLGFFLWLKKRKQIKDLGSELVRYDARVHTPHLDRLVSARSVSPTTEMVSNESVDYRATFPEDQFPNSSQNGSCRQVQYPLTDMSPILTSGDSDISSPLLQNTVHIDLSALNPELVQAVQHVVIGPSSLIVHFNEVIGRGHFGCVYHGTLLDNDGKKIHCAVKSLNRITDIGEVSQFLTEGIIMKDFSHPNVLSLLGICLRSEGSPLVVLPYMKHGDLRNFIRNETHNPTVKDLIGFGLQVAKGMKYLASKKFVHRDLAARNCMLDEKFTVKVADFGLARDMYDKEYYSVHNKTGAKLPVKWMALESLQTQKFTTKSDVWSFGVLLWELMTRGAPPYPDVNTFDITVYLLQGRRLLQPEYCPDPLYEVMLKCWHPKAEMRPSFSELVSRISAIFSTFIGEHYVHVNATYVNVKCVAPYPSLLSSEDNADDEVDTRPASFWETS

Tie2(h) = Tie2(h) (Homo sapiens, UniProt Q02763); experiment: Kinase assay, Tie2(h); assay type: biochemical
FGFR4(h) = FGFR4(h) (Homo sapiens, UniProt P22455); experiment: Kinase assay, FGFR4(h); assay type: biochemical

**Q.** For `Cc1cc2c(F)c(Oc3ncnc(Nc4ccc(N5C[C@@H](C)N[C@@H](C)C5)cc4)c3C#N)cc(F)c2[nH]1` [Compound 19], which half-life [1] is on record?
**A.** Its half-life is > 1 h.

**Q.** What about the GI50 (RT112) of the same molecule?
**A.** Its GI50 is 66 nM.

**Q.** And the IC50 (Ret(h))?
**A.** The IC50 was > 1000 nM.

**Q.** What about the IC50 (FGFR1(h)) of the same molecule?
**A.** The IC50 was 0.9 nM.

**Q.** What about the inhibition at 1 µM (FGFR1(h); 1 μM) of the same molecule?
**A.** Its inhibition at 1 µM is 100%.

**Q.** And the “BWC (%)” value (TG1a Human AML Xenograft; 5 mg/kg, Qdx10, IP)?
**A.** Its value is −4.1%.

**Q.** What about the “T/C (%) (day14)” value (TG1a Human AML Xenograft; 5 mg/kg, Qdx10, IP) of the same molecule?
**A.** Its value is −69.7%.

**Q.** And the “BWC (%)” value (TG1a Human AML Xenograft; 10 mg/kg, Qdx10, IP)?
**A.** Its value is −6.3%.

**Q.** And the “T/C (%) (day14)” value (TG1a Human AML Xenograft; 10 mg/kg, Qdx10, IP)?
**A.** The value was −83.7%.

**Q.** What about the “BWC (%) (d7)” value (TG1a Human AML Xenograft; 20 mg/kg, Qdx10, IP, d7) of the same molecule?
**A.** Its value is −26.2%.

**Q.** What about the “T/C (%) (day7)” value (TG1a Human AML Xenograft; 20 mg/kg, Qdx10, IP, day7) of the same molecule?
**A.** The value was −68.7%.

**Q.** What about the “Weight loss in dose-response study (FIGS. 4 and 5)” value (TG1a Human AML Xenograft; highest dose, 20 mg/kg) of the same molecule?
**A.** Its value is “significant weight loss”.

**Q.** What about the IC50 (ALK(h)) of the same molecule?
**A.** The IC50 was > 1000 nM.

**Q.** And the CC50 [2]?
**A.** The CC50 was 1900 nM.

**Q.** And the GI50 (Kato III)?
**A.** Its GI50 is 79 nM.

**Q.** What about the IC50 (ABL(h)) of the same molecule?
**A.** Its IC50 is > 1000 nM.

**Q.** What about the IC50 (Flt4(h)) of the same molecule?
**A.** The IC50 was 116 nM.

**Q.** What about the IC50 (Mer(h)) of the same molecule?
**A.** Its IC50 is > 1000 nM.

**Q.** And the half-life [3]?
**A.** Its half-life is > 1 h.

**Q.** And the MTD [4]?
**A.** Its MTD is 100 mg/kg.

**Q.** What about the IC50 (Axl(h)) of the same molecule?
**A.** The IC50 was > 1000 nM.

**Q.** What about the IC50 (FGFR4) of the same molecule?
**A.** Its IC50 is 92.1 nM.

**Q.** What about the IC50 (Lck(h)) of the same molecule?
**A.** Its IC50 is > 1000 nM.

**Q.** And the IC50 (hERG)?
**A.** The IC50 was > 30000 nM.

**Q.** What about the IC50 (AJK2(h)) of the same molecule?
**A.** The IC50 was > 1000 nM.

**Q.** And the IC50 (Aurora-A (h))?
**A.** The IC50 was > 1000 nM.

**Q.** What about the IC50 (Met(h)) of the same molecule?
**A.** Its IC50 is > 1000 nM.

**Q.** And the IC50 (Tie2(h))?
**A.** Its IC50 is > 1000 nM.

**Q.** And the IC50 (FGFR4(h))?
**A.** Its IC50 is 12 nM.
